Results taken from patent US20240400549A1, “COMPOUNDS AND THEIR USES FOR TREATING NEURODEGENERATIVE DISEASE” (Academia Sinica, priority 2021, published 2024).
Peptide text beside a SMILES is read from it. * marks the point of attachment. Cbz = O=C(OCc1ccccc1)*

Assays:
[1] = tested on: Neuro-2a cells; assay: Cytotoxicity of compounds in Neuro-2a cells; assay type: cell-based, mouse; details: for cytotoxicity as compared to that of compound II-1d: 5 or 10 μM concentration, Neuro-2a cells
[2] = target: T1, 109Q-HTTEX1 (Homo sapiens, UniProt P42858); assay: Western blot of polyQ-expanded huntingtin (109Q-HTTEX1) in transfected Neuro-2a cells; assay type: cell-based; details: 5 μM, 24 h
T1 construct: the polyQ-expanded N terminus of HTT translated from the exon 1 of human huntingtin gene; expressed in transfected cells; host or cells: Neuro-2a (mouse neuroblastoma)
T1 sequence (P42858 with tags, fused parts or gaps): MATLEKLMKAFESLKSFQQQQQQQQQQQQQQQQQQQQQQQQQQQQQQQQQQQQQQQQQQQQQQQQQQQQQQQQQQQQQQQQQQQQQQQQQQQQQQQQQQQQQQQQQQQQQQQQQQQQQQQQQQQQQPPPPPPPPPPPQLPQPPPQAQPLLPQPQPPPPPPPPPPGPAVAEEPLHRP
Experimental: (§1) Mouse neuroblastoma cell line (Neuro-2a) were cultured in Dulbecco's modified Eagle's medium (DMEM; Gibco) containing 2×10^−3 M glutamine, 10% heat inactivated fetal bovine serum (FBS), and 100 U mL^−1 penicillin-streptomycin (Gibco) at 37° C. in a humidified incubator containing 5% CO2. Alternatively, Neuro-2a cells were cultured in Dulbecco's modified Eagle's medium (DMEM; Invitrogen, Carlsbad, CA, USA) supplemented with 10% heat-inactivated FBS. The cells were incubated in a humidified incubator at 37° C. with 10% CO2. Transfection was performed using T-Pro NTR II (Ji-Feng Biotechnology, Taiwan) following the manufacturer's protocol.
(§2) Alternatively, cells were lysed with RIPA lysis buffer (150 mM sodium chloride, 1% Nonidet P-40, 0.5% sodium deoxycholate, 0.1% SDS, and 50 mM Tris-HCl, pH 8.0) containing 1× protease inhibitor cocktail and 1× phosphatase inhibitor cocktail to prepare total lysates, which were rotated at 4° C. for 1 h. Protein concentrations were determined with a Bio-Rad protein assay kit (Bio-Rad, Hercules, CA, USA). Protein samples were separated on 8-10% SDS-PAGE gels and electrophoretically transferred onto PVDF membranes (Millipore, Billerica, MA, USA). The membranes were incubated overnight at 4° C. with the following primary antibodies: anti-GAPDH (GeneTex; GTX627408), anti-HTT (Habel; a custom antibody raised against protein translated from the exon 1 of HTT (designated HTTEX1), anti-pTau (MC1, a generous gift from Dr. Peter Davies, the Feinstein Institute for Medical Research, New York, USA), and anti-VCP (BD, East Rutherford, NJ, USA). Immunoreactive bands were detected by enhanced chemiluminescence (ECL; Millipore) and recorded using the UVP ChemiDoc-It Imaging System (Upland, CA, USA).
In this example, the effect of the present compound on huntingtin (HTT) protein (a protein known to cause Huntington's disease) was investigated. To this purpose, Neuro-2a cells were transiently transfected with pcDNA3-109Q-HTTEX1 (i.e., the polyQ-expanded N terminus of HTT translated from the exon 1 of human huntingtin gene (designated 109Q-HTTEX1)) and then exposed to the indicated compound (5 μM) for additional 24 h. Total protein lysates were harvested for Western blot analyses, and results are depicted in FIG. 3.

[3] = target: T2, pathogenic tau protein (pTau) (Homo sapiens, UniProt P10636, P618L); assay: Western blot of pathogenic tau protein (pTau) in SH-SY5Y-Tau-P301L cells; assay type: cell-based; details: 5 μM, 24 h, doxycycline-induced SH-SY5Y-Tau-P301L cells
T2 construct: expressed in transfected cells; host or cells: SH-SY5Y-Tau-P301L (doxycycline-inducible)
T2 sequence (P10636 1-441 isoform P10636-8 P301L): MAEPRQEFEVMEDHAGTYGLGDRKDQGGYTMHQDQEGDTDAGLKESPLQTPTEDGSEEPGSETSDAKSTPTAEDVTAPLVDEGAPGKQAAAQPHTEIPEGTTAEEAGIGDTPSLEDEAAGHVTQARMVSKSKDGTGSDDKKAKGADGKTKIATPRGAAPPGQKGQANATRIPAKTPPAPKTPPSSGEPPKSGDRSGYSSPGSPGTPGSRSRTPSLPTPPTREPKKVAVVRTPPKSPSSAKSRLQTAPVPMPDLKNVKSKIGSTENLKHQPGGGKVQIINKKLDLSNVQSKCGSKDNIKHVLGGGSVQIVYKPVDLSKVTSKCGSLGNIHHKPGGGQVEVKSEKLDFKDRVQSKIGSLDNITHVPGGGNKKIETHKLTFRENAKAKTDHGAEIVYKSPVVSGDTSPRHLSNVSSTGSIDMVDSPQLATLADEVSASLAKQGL
Experimental: The SH-SY5Y-Tau-P301L cell line (SY5Y-Tau) were cultured in DMEM supplemented with 10% FBS and incubated in a humidified incubator at 37° C. with 5% CO2. To induce the expression of pathogenic Tau (pTau), SY5Y-Tau cells were seeded at 1×10^5/60-mm plate, cultured for 2-3 days to reach 70% confluence, and treated with doxycycline (1 μg/mL) for 24 hr to induce the expression of pTau.
as §2
Hyperphosphorylated tau protein is a major hallmark of Alzheimer's disease and many other neurological disorders (including Huntington's disease). To investigate the effects of the compounds of formula (I) or formula (II) on the pathogenic tau protein (designated pTau), SH-SY5Y-Tau-P301L cells were treated with doxycycline (1 μg/mL) (which induced the expression of pathogenic tau protein (pTau), and the indicated compound (5 μM) for 24 h. Total protein lysates were then harvested and analyzed by Western blot analyses. Results are illustrated in FIG. 4.

[4] = target: T3, eGFP-C-TDP-43 aggregates (Homo sapiens, UniProt Q13148); assay: Filter trap assay of insoluble eGFP-C-TDP-43 aggregates in transfected Neuro-2a cells; assay type: cell-based, mouse; details: 5 μM
T3 construct: expressed in transfected cells; host or cells: Neuro-2a (mouse neuroblastoma)
T3 sequence (Q13148 208-414 limits assumed): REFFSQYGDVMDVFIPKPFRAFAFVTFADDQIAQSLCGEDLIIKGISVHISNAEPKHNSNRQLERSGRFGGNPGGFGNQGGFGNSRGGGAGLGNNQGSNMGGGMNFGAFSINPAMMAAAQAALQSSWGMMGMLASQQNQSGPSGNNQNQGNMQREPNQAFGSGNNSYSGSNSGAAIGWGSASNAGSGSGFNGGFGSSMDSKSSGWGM
Experimental: as §1
Neuro-2a cells were seeded in a 6-well plate at a concentration of 2×10^5 cells/well and incubated overnight. Once the cells were attached, Neuro-2a cells were transfected with the eGFP-C-TDP-43 plasmid (2.2 μg) using Turbofect transfection reagent (Invitrogen) and treated with or without 5 μM test compound after 2 h transfection. After incubation for another 22 h, the transfected cells were harvested by RIPA buffer containing protease inhibitor (Roche) and sonicated on ice for 10 seconds. Extracts were centrifuged at 14000 rpm for 10 min at 4° C., followed by measurement of protein concentration using a bicinchoninic acid (BCA) assay. […] Aggregated eGFP-C-TDP-43 protein trapped by the CA membranes was determined by immunoblotting. […]
In this example, the effect of the present compound on C-TDP-43 aggregates was investigated. To this purpose, the eGFP-TDP-43208-414 (hereafter referred as eGFP-C-TDP-43) expressed Neuro-2a cells were first treated with tested compound (e.g., any one of the compounds of formula (I) or (II), then, cells were lysed and the insoluble eGFP-C-TDP43 aggregates were quantified by use of filter trap assay as described in the “Materials and Methods” section; for comparison, slot blot assay was also performed by using the nitrocellulose (NC) membrane for the loading control. Results are depicted in FIG. 1.

[5] = tested on: YFP—C-TDP-43 transgenic C. elegans; assay: Swimming (thrashing) body bend assay of YFP-C-TDP-43 transgenic C. elegans; assay type: in vivo; details: YFP—C-TDP-43 C. elegans, swimming in buffer
Experimental: The YFP—C-TDP-43 transgenic strains of C. elegans generated in this study were IW33 [Psnb-l:C-TDP-43219-414-YFP (iwIs22)]. The strains of nematodes were maintained with standard procedure and grown at 20° C. as previously described (Zhang, T. et al. Hum. Mol. Genet. 2011, 20 (10), 1952). For all assays, the transgenic young two-day (80 hours) adults were used. For larvae synchronization, the eggs were isolated by lysing gravid adult worms with freshly prepared bleaching solution (0.5 mL 5 M NaOH with 1 mL bleach) and incubated in S buffer (recipe) for overnight. For drug treatments, compound I-1b and/or DMSO were solely or along with MG132 applied to fresh NGM plates prior to installing the synchronized C. elegans. The body bends of the corresponding treatment in a duration of 30 seconds of the various strains were documented through SMZ800N stereomicroscope equipped with a CCD camera (Nikon). A body bend was counted as the head of C. elegans travels across the mid-body in 1×PBS buffer. Then, the bending videos of C. elegans were analyzed by ImageJ with the wrMTrck plugin (Nussbaum-Krammer, C. I. et al. J. Vis. Exp. 2015, (95), 52321). […]
As YFP—C-TDP-43 readily forms cytosolic aggregates in nervous system, the YFP—C-TDP-43 aggregates both in the neuron processes and neuron bodies of the ventral cord were monitored. […]

| reduction of the expression of 109Q-HTTEX1 [2] | reduction of the expressed level of pTau [3] | level of C-TDP-43 aggregate as compared to the control group [4] | Structure (SMILES) | also measured |
| --- | --- | --- | --- | --- |
| – | – | – | CN(C)c1ccc(-c2nc3ccc(OCCOCCNc4cccc5c4C(=O)N(C4CCC(=O)NC4=O)C5=O)cc3s2)cc1 (stereo not drawn) [I-1a, 4-((2-(2-((2-(4-(dimethylamino)phenyl)benzo[d]thiazol-6-yl)oxy)ethoxy)ethyl)amino)-2-(2,6-dioxopiperidin-3-yl)isoindoline-1,3-dione] | cytotoxicity comparing to mock group of Neuro-2a cells ([1]; 5 μM concentration): neglectable cytotoxicity |
| approximately 50% | approximately 40% | – | CN(C)c1ccc(-c2nc3ccc(OCCOCCOCCOCCNc4cccc5c4C(=O)N(C4CCC(=O)NC4=O)C5=O)cc3s2)cc1 (stereo not drawn) [I-1c, 4-((2-(2-(2-(2-((2-(4-(dimethylamino)phenyl)benzo[d]thiazol-6yl)oxy)ethoxy)ethoxy)ethoxy)ethyl)amino)-2-(2,6-dioxopiperidin-3-yl)isoindoline-1,3-dione] | – |
| approximately 50% | approximately 40% | – | CN(C)c1ccc(-c2nc3ccc(OCCOCCOCCOCCOCCNc4cccc5c4C(=O)N(C4CCC(=O)NC4=O)C5=O)cc3s2)cc1 (stereo not drawn) [I-1d, 4-((14-((2-(4-(dimethylamino)phenyl)benzo[d]thiazol-6-yl)oxy)-3,6,9,12-tetraoxatetradecyl)amino)-2-(2,6-dioxopiperidin-3-yl)isoindoline-1,3-dione] | – |
| 20% | – | significantly reduce | CNc1ccc(/C=C/c2ccc(OCCOCCOCCNc3cccc4c3C(=O)N(C3CCC(=O)NC3=O)C4=O)nc2)cc1 (stereo not drawn) [II-1b, (E)-2-(2,6-dioxopiperidin-3-yl)-4-((2-(2-(2-((5-(4-(methylamino)styryl)pyridin-2-yl)oxy)ethoxy)ethoxy)ethyl)amino)isoindoline-1,3-dione] | cytotoxicity as compared to that of compound II-1d [1]: less cytotoxicity; reduction of the expressed level of pTau ([3]; listed as IT-1b): negligible effect |
| approximately 50% | approximately 40% | significantly reduce | CNc1ccc(/C=C/c2ccc(OCCOCCOCCNc3cccc4c3C(=O)N(C3CCC(=O)NC3=O)C4=O)nc2)cc1 (stereo not drawn) [II-1d, (E)-2-(2,6-dioxopiperidin-3-yl)-4-((2-(2-(2-((5-(4-(methylamino)styryl)pyridin-2-yl)oxy)ethoxy)ethoxy)ethyl)amino)isoindoline-1,3-dione] | – |
| – | – | significantly reduce | CNc1ccc(/C=C/c2ccc(OCCCCCCCCCCNc3cccc4c3C(=O)N(C3CCC(=O)NC3=O)C4=O)nc2)cc1 (stereo not drawn) [II-2d, (E)-2-(2,6-dioxopiperidin-3-yl)-4-((10-((5-(4-(methylamino)styryl)pyridin-2-yl)oxy)decyl)amino)isoindoline-1,3-dione] | cytotoxicity as compared to that of compound II-1d [1]: lower toxicity |
| – | – | – | CC(C)C[C@@H](C=O)NC(=O)[C@H](CC(C)C)NC(=O)[C@H](CC(C)C)NC(=O)OCc1ccccc1 [MG132, reference compound] (Cbz-Leu-Leu-Leu-aldehyde) | bending frequency (in words) [5]: slow bending frequency |
